Measured values as given in article PMC12930396, “Positive modulators of N-methyl-D-aspartate receptor: structure–activity relationship study on steroidal C-17 and C-20 oxime ethers” (RSC Advances, 2026).
“Also recorded” adds a separate entry of the source.

What was measured:
GluN1/GluN2B receptors [1] = conditions: cited from earlier work; for EC50: read-out: EC50, potentiation of GluN1/GluN2B receptor responses
in vitro [2] = conditions: pH 7.4; for Metabolic stability in rat liver microsomes: 1 h, 10 µM; for half-life at 10 µM: rat, microsomes
Method: The reactions were terminated by the addition of four volumes of ice-cold methanol, mixed vigorously, and left at −20 °C for 1h. After that, the samples were centrifuged and the supernatants were analysed by means of ECHO-MS® System (Sciex, Framingham, MA, USA). Zero time points were prepared by adding ice-cold methanol to the mixture of the compound with cofactors before the addition of microsomes. […] Intrinsic clearance (CLint) was calculated using the following formula: [drawing 4] where V is the incubation volume per milligram of microsomal protein (µL mg^−1) and t1/2 is the microsomal half-life.

in vitro [3] = conditions: pH 7.4; for PAMPA permeability Retention (mass retention): 5 h, 100 µM; for Papp at 5 h, 100 µM: PAMPA
Method: Permeability was quantified using permeability coefficients (Pe) and mass retention, the latter representing the proportion of compound retained in the membrane.
Permeation experiments were conducted in polystyrene 96-well filter plates with PVDF membrane pre-coated with structured layers of phospholipids (Corning Gentest™) according to the manufacturer's instructions. Briefly, the plate was warmed to room temperature, and meanwhile, the solutions of the compounds were diluted from 10 mM DMSO stocks to TRIS–HCl buffer pH 7.4 to reach a 100 µM final concentration. The DMSO concentration in the samples was 1%. Then, 300 µL of these solutions were transferred into the donor (receiver) plate wells, and 200 µL of the (TRIS) buffer was added to the acceptor (filter) plate wells. The filter plate and receiver plate were assembled and incubated for 5 h on an orbital shaker (300 rpm). After this, the concentration of the tested substances in both the donor and acceptor compartments was determined with use of LC/MS. Liquid chromatography was performed using an ExionLC AD pump and autosampler from Sciex (Framingham, MA, USA). […] The mobile phase flow rate was 300 µL min^−1. The column Synergi Fusion-RP from Phenomenex (Torrance, CA, USA) was used and was kept at 40 °C during the analysis.

GluN1/GluN2B receptors [4] = target: T1, GluN1/GluN2B receptors (Rattus norvegicus, UniProt P35439+Q00960); assay: Patch-clamp: modulation of glutamate-induced currents of recombinant GluN1/GluN2B receptors expressed in HEK293 cells; format: cell-based; conditions: for h ± SEM (apparent Hill coefficient): concentration-response fit; for h ± SEM (apparent Hill coefficient) / EC50 / Emax: mean ± SEM; for EC50: half-maximal potentiation of currents evoked by 1 µM glutamate; for EC50 / Emax / inhibition at 3 µM: HEK293; for Emax: maximal potentiation of currents evoked by 1 µM glutamate and 30 µM glycine; for Modulatory profile at NMDARs: GluN1/GluN2B in HEK293; for inhibition at 3 µM: at 3 µM compound, read-out: NAM effect (degree of inhibition); for inhibition at 3 µM / PAM effect (degree of potentiation): 1 µM glutamate
T1 construct: expressed in transfected cells; host or cells: HEK293 cells (ATCC No. CRL-1573)
Method: To investigate the effect of compounds 11–23 on the activity of NMDARs, electrophysiological measurements were performed on HEK293 cells that were co-transfected with cDNAs containing genes encoding for the rat GluN1-1a and GluN2B subunits. The degree of modulation (E; potentiation/inhibition) for the newly synthesized compounds was determined using the following formula: [drawing 1] where Ie is the value of the current amplitude during glutamate and compound coapplication, and Ia is the current amplitude value for glutamate application. […] The results are presented as mean ± standard error of the mean (SEM), with n equal to the number of independent measurements. One-way analysis of variance (ANOVA) was used for multiple comparisons (unless otherwise stated, a value of P ≤ 0.05 was used for the determination of significance).
We have evaluated the relationship between oxime derivatives 11–23 and their modulatory effect on recombinant GluN1/GluN2B receptors. Due to the […] effect of neurosteroid-based PAMs at NMDARs[20,44]
HEK293 cells (American Type Culture Collection, ATCC No. CRL-1573, Rockville, MD, USA) were cultured in Opti-MEM I (Invitrogen, Carlsbad, CA, USA) supplemented with 5% fetal bovine serum (FBS; PAN Biotech, Aidenbach, Germany) at 37 °C in 5% CO2. 24 h before transfection, HEK293 cells were plated in 24-well plates at a density of 2 × 10^5 cells per well. The next day, the cells were transfected with cDNA encoding rat GluN1-1a (GluN1; GenBank accession number U08261)[56] and GluN2B (GenBank accession number M91562)[57] subunits (in the pCI-neo expression vector), along with green fluorescent protein (GFP; in the pQBI 25 vector, Takara, Tokyo, Japan). Briefly, equal amounts (200 ng) of cDNAs encoding GluN1-1a, GluN2B, and GFP were mixed with 0.6 µl of Matra-A reagent (IBA, Gottingen, Germany) in 50 µL of Opti-MEM I and added to confluent HEK293 cells cultured in 24-well plates. After trypsinization, the cells were resuspended in Opti-MEM I containing 1% FBS, supplemented with 20 mM MgCl2, 1 mM D,L-2-amino-5-phosphonovaleric acid, 3 mM kynurenic acid, and 1 µM ketamine, and plated on 30 mm glass coverslips coated with collagen and poly-L-lysine. Transfected cells were identified by GFP epifluorescence. Electrophysiology experiments were performed 24–48 h after transfection.
Whole-cell current recordings, voltage-clamped at a holding potential of −60 mV, were performed at room temperature using a patch-clamp amplifier (Axopatch 200B; Molecular Devices, Sunnyvale, CA, USA) after capacitance and series resistance (<10 MΩ) compensation (80–90%). NMDAR current responses were low-pass filtered at 2 kHz, digitally sampled at 5 kHz, and analysed using pClamp software (version 10.6; Molecular Devices). Patch pipettes (3–5 MΩ), pulled from borosilicate glass, were filled with an intracellular solution (ICS) containing (in mM): 15 CsCl, 10 BAPTA, 3 MgCl2, 1 CaCl2, 120 gluconic acid, 10 HEPES, and 2 ATP-Mg salt (pH adjusted to 7.2 with CsOH). The extracellular solution (ECS) contained (in mM): 160 NaCl, 2.5 KCl, 0.2 EDTA, 10 glucose, 10 HEPES, and 0.7 CaCl2 (pH adjusted to 7.3 with NaOH). NMDAR responses were induced by 1 µM glutamate and 30 µM glycine. 1% DMSO was present in all control and testing solutions. Solution applications were performed using a microprocessor-controlled multibarrel fast-perfusion system with a solution exchange rate around the cells of ∼10 ms.[58]

Stability in rat plasma = format: in vitro ADME; conditions: rat, plasma
Method: Compounds were prepared as 1.6 mg mL^−1 stock solutions in methanol. Then, 20 µL of stock solution was added to 1000 µL of rat plasma (BioIVT, Cat. No. RAT00PLLH-0102307), maintained at 37 °C. Aliquots (50 µL) withdrawn at 0, 8, and 24 h were analyzed by HPLC. An aliquot of plasma was extracted with methanol (450 µL) containing an internal standard, and the solution was vortexed (20 s) and centrifuged at 13 500 rpm for 10 min. The supernatant was transferred to an autosampler vial, and 10 µL was injected into an LC-MS system. The samples were analyzed using an Agilent 6230 TOF LC/MS. Samples were separated on a Waters ACQUITY UPLC CSH Phenyl-Hexyl column (100 × 2.1, 130 Å, 1.7 µm) at a flow rate of 0.3 mL min^−1. […]. The temperature, the flow rate of the nitrogen drying gas, the pressure of the nitrogen nebulizing gas, and the flow rate of the sheath gas were set at 325 °C, 10 L min^−1, 40 psi, […], and 11 L min^−1, respectively. Results are represented as a percentage of the compound remaining in spiked plasma.

T1 sequence (Q00960 27-1482, other chains not shown): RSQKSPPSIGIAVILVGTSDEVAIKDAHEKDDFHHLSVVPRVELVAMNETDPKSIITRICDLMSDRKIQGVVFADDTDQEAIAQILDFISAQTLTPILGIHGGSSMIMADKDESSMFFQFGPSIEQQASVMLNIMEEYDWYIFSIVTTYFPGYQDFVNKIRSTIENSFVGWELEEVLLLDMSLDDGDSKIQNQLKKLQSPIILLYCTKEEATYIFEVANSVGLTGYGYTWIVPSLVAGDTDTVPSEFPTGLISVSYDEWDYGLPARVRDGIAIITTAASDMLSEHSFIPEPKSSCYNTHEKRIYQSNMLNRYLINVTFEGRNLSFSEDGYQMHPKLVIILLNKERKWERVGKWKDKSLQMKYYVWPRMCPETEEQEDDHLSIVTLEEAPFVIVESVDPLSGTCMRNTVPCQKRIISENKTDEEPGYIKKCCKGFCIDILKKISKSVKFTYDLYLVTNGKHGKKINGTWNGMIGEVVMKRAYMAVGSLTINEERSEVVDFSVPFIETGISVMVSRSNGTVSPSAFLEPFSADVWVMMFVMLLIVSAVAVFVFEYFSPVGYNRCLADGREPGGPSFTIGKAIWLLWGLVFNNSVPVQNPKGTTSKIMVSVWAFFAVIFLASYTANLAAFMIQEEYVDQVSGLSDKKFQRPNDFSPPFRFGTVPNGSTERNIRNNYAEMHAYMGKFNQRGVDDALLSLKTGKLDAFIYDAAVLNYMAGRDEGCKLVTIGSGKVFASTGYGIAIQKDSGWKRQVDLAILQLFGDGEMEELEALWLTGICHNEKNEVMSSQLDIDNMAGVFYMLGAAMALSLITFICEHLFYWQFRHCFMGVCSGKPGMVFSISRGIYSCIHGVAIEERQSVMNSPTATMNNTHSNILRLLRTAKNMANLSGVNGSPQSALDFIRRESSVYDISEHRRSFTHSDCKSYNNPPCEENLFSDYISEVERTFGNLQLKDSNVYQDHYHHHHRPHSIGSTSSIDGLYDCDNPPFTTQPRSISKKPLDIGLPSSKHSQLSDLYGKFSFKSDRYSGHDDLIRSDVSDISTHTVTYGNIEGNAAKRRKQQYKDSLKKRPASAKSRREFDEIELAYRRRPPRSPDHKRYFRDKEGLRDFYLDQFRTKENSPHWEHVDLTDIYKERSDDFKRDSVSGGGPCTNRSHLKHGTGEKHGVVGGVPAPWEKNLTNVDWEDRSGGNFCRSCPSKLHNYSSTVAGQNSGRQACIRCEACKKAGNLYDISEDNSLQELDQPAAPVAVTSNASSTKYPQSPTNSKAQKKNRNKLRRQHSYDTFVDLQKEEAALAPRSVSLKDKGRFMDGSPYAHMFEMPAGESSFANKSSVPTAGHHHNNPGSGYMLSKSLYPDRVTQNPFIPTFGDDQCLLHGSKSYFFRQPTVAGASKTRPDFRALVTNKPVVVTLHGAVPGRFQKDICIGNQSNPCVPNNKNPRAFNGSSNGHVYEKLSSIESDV

| SMILES | Emax, potentiation of GluN1/GluN2B receptor responses (GluN1/GluN2B receptors [1]) [%] | EC50 (GluN1/GluN2B receptors [1]) [µM] | half-life at 10 µM (in vitro [2]) [h] | PAMPA permeability Retention (mass retention) (in vitro [3]) [%] | h ± SEM (apparent Hill coefficient) (GluN1/GluN2B receptors [4]) | EC50 (GluN1/GluN2B receptors [4]) [µM] | Emax (GluN1/GluN2B receptors [4]) [%] | other results |
| --- | --- | --- | --- | --- | --- | --- | --- | --- |
| C[C@]12CC[C@H](OC(=O)CCCCC(=O)O)CC1=CCC1C2CC[C@]2(C)C(=O)CCC12 (stereo partly shown) [Compound 6] | 180 | 108 | – | – | – | – | – | – |
| C[C@]12CC[C@H](OC(=O)CCCCCCCC(=O)O)CC1=CCC1C2CC[C@]2(C)C(=O)CCC12 (stereo partly shown) [Compound 9] | 226 | 32 | – | – | – | – | – | – |
| C/C(=N\OCc1ccccc1)[C@H]1CCC2C3CC=C4C[C@@H](OC(=O)CCCC(=O)O)CC[C@]4(C)C3CC[C@@]21C (stereo partly drawn) [Compound 21, 20-Oxo-pregn-5-en-3β-yl hemiglutarate O-(phenylmethyl)oxime] | – | – | > 1 | 95 | 1.7 ± 0.3 | 11.3 ± 2 | 403 ± 56 | Metabolic stability in rat liver microsomes (in vitro [2]): no detectable metabolism after 60 min; Papp at 5 h, 100 µM (in vitro [3]): 1.82 ×10⁻⁶ cm/s |
| C[C@]12CC[C@H](OC(=O)CCCCCCCCC(=O)O)CC1=CCC1C2CC[C@]2(C)C(=O)CCC12 (stereo partly shown) [Compound 10] | 165 | 16 | – | – | – | – | – | – |
| C[C@]12CC[C@H](OC(=O)CCCCCC(=O)O)CC1=CCC1C2CC[C@]2(C)C(=O)CCC12 (stereo partly shown) [Compound 7] | 187 | 82 | – | – | – | – | – | – |
| C/C(=N\OCCN1CCOCC1)[C@H]1CCC2C3CC=C4C[C@@H](OC(=O)CCCC(=O)O)CC[C@]4(C)C3CC[C@@]21C (stereo partly drawn) [Compound 13, 20-Oxo-pregn-5-en-3β-yl hemiglutarate O-(3-morpholinoethyl)oxime] | – | – | > 1 | 95 | 2.8 ± 0.2 | 34.7 ± 4.2 | 111 ± 11 | – |
| CCO/N=C1\CCC2C3CC=C4C[C@@H](OC(=O)CCCC(=O)O)CC[C@]4(C)C3CC[C@]12C (stereo partly drawn) [Compound 15, 17-Oxo-androst-5-en-3β-yl hemiglutarate O-ethyloxime] | – | – | > 1 | 80 | 1.5 ± 0.1 | 22.7 ± 3.1 | 441 ± 76 | Stability in rat plasma (% remaining) 8 h (Stability in rat plasma; 8 h): 82.1 ± 7.5 % remaining; Stability in rat plasma (% remaining) 24 h (Stability in rat plasma; 24 h): 69.9 ± 5.0 % remaining |
| C[C@]12CC[C@H](OC(=O)CCCC(=O)O)CC1=CCC1C2CC[C@]2(C)C(=O)CCC12 (stereo partly shown) [Compound 5] | 154 | 151 | – | – | – | – | – | – |
| C[C@@]12CCCC1C1CC[C@@H]3C[C@H](OC(=O)CCC(=O)O)CC[C@]3(C)C1CC2 (stereo partly shown) [Compound 2] | 452 | 7.4 | – | – | – | – | – | – |
| CC[C@@H](C)[C@H]1CCC2C3CC[C@@H]4C[C@H](OS(=O)(=O)O)CC[C@]4(C)C3CC[C@@]21C (stereo partly shown) [Compound 1] | – | – | – | – | – | – | – | IC50 (GluN1/GluN2B receptors [1]; read-out: IC50, inhibition of currents of GluN1/GluN2B receptors): 0.09 µM |
| CO/N=C(\C)[C@H]1CCC2C3CC=C4C[C@@H](OC(=O)CCCC(=O)O)CC[C@]4(C)C3CC[C@@]21C (stereo partly drawn) [Compound 17, 20-Oxo-pregn-5-en-3β-yl hemiglutarate O-methyloxime] | – | – | > 1 | 95 | 1.6 ± 0.1 | 6.1 ± 0.7 | 503 ± 85 | Papp at 5 h, 100 µM (in vitro [3]): 5.5 ×10⁻⁶ cm/s; Potency relative to PES (GluN1/GluN2B receptors [4]; EC50 compared with PES): over 3.5 fold |
| C=CCO/N=C(\C)[C@H]1CCC2C3CC=C4C[C@@H](OC(=O)CCCC(=O)O)CC[C@]4(C)C3CC[C@@]21C (stereo partly drawn) [Compound 20, 20-Oxo-pregn-5-en-3β-yl hemiglutarate O-(2-propenyl)oxime] | – | – | > 1 | 99 | 2.0 ± 0.2 | 12.6 ± 2.9 | 317 ± 43 | Metabolic stability in rat liver microsomes (in vitro [2]): no detectable metabolism after 60 min; Papp at 5 h, 100 µM (in vitro [3]): 7.24 ×10⁻⁶ cm/s |
| C[C@]12CC[C@H](OC(=O)CCCCCCC(=O)O)CC1=CCC1C2CC[C@]2(C)C(=O)CCC12 (stereo partly shown) [Compound 8] | 189 | 49 | – | – | – | – | – | – |
| CCCO/N=C(\C)[C@H]1CCC2C3CC=C4C[C@@H](OC(=O)CCCC(=O)O)CC[C@]4(C)C3CC[C@@]21C (stereo partly drawn) [Compound 18, 20-Oxo-pregn-5-en-3β-yl hemiglutarate O-propyloxime] | – | – | > 1 | 100 | – | – | – | Modulatory profile at NMDARs (GluN1/GluN2B receptors [4]): not identified as PAMs; also recorded: complex, concentration-dependent activity profile; inhibition at 3 µM (GluN1/GluN2B receptors [4]): 7%; PAM effect (degree of potentiation) (GluN1/GluN2B receptors [4]; at 10 µM compound): 75 ± 21%; PAM effect (degree of potentiation) (GluN1/GluN2B receptors [4]; at 30 µM compound): 108 ± 17% |
| C/C(=N\OC(C)C)[C@H]1CCC2C3CC=C4C[C@@H](OC(=O)CCCC(=O)O)CC[C@]4(C)C3CC[C@@]21C (stereo partly drawn) [Compound 19, 20-Oxo-pregn-5-en-3β-yl hemiglutarate O-isopropyloxime] | – | – | > 1 | 99 | – | – | – | Metabolic stability in rat liver microsomes (in vitro [2]): no detectable metabolism after 60 min; Modulatory profile at NMDARs (GluN1/GluN2B receptors [4]): not identified as PAMs; also recorded: complex, concentration-dependent activity profile; inhibition at 3 µM (GluN1/GluN2B receptors [4]): 27%; PAM effect (degree of potentiation) (GluN1/GluN2B receptors [4]; at 10 µM compound): 81 ± 20%; PAM effect (degree of potentiation) (GluN1/GluN2B receptors [4]; at 30 µM compound): 169 ± 55% |
